Read-outs that look alike come from different tables or passages of the source.
How the values were obtained:
[1] = target: P. falciparum apicoplast DNA polymerase (Pf-apPOL) (Plasmodium falciparum, UniProt Q8ILY1); test: Fluorescence-based high-throughput DNA polymerase assay (molecular beacon), primary screen and dose-response; assay type: biochemical
Procedure, shortened: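 Single-point screening used 10 µM compound with 20 nM polymerase, 20 nM hairpin substrate and 6 µM dNTPs for 90 min at 25 °C. Confirmatory titrations (2.5–80 µM) followed fluorescence at three times, and IC50 was derived from a fit including a cooperativity term n.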

[2] = target: Babesia bovis apicoplast DNA polymerase (Bb-apPOL); test: In vitro DNA polymerase inhibition assay, Bb-apPOL; assay type: biochemical; settings: Table 2
Method: (§1) Codon-optimized, exonuclease-deficient Pf-apPOL was overexpressed in E. coli BL21 (DE3) and purified as described. The protein was dialysed against two, 1-liter changes of 20 mM Tris-HCl (pH 8.0), 400 mM NaCl, and 20% glycerol. Plasmodium bergei and Babesia bovis apPOLs (Pb-apPOL and Bb-apPOL, respectively) were codon-optimized, expressed, and purified as for Pf-apPOL[15]. Bacteriophage T4 DNA polymerase was purified as described. The DNA oligonucleotides used to make the high-throughput substrate were obtained from Integrated DNA Technologies. Deoxynucleotides were purchased from Strategene. All other materials came from Fisher Scientific.
(§2) We tested the ability of the 102 compounds to kill P. falciparum parasites cultured in human red blood cells. Due to the number of compounds, we used a single inhibitor concentration of 20 µM and performed experiments in triplicate. […] These compounds were then tested in a dose-response format against chloroquine resistant P. falciparum parasites (Dd2) and the resulting data were fit to a sigmoidal growth inhibition curve to determine EC50 values (Figure 5, Table 2). […] Finally, to determine if the compounds were killing the parasites solely via apicoplast disruption, the dose-response curves were also performed with 1 mM isopentylpyrophosphate (IPP) in the growth media (Table 2). […] Very little is known regarding mitochondrial DNA replication in P. falciparum; however, signal sequence identification algorithms have predicted that the other bacterial A-family DNA polymerase residing in P. falciparum is targeted to the mitochondria (PF3D7_0625300)[29]. […] We are currently in the process of cloning and expressing this putative mitochondrial DNA polymerase to determine the effect of these compounds on its activity.

[3] = test system: chloroquine resistant P. falciparum parasites (strain Dd2); test: Parasite growth inhibition assay in human red blood cells (flow cytometry, acridine orange); assay type: cell-based; settings: Plasmodium falciparum, Erythrocyte
Method: The chloroquine resistant P. falciparum parasites (strain Dd2) were cultured in de-identified, IRB-exempt human red blood cells (RBCs) obtained from the American Red Cross and parasite cultures were maintained as described. Parasitaemia (percentage of total RBCs infected) was measured by flow cytometry on an Attune NxT (ThermoFisher) by nucleic-acid staining of cultured RBCs with phosphate-buffered saline (PBS) containing 0.8 µg ml^−1 acridine orange. We began by determining percent growth inhibition at single compound dose (20 µM) for the 102 non-toxic compounds. […] The experiments were initiated with a starting parasitaemia of ∼1% and parasitaemia was measured 72 and 96 h post compound addition. Growth was normalised to parasite cultures with carrier only (DMSO).
as §2

[4] = target: T1, P. berghei apicoplast DNA polymerase (Pb-apPOL) (Plasmodium berghei, UniProt A0A509ALK1); test: In vitro DNA polymerase inhibition assay, Pb-apPOL; assay type: biochemical; settings: Table 2
T1 sequence (A0A509ALK1 1182-1809): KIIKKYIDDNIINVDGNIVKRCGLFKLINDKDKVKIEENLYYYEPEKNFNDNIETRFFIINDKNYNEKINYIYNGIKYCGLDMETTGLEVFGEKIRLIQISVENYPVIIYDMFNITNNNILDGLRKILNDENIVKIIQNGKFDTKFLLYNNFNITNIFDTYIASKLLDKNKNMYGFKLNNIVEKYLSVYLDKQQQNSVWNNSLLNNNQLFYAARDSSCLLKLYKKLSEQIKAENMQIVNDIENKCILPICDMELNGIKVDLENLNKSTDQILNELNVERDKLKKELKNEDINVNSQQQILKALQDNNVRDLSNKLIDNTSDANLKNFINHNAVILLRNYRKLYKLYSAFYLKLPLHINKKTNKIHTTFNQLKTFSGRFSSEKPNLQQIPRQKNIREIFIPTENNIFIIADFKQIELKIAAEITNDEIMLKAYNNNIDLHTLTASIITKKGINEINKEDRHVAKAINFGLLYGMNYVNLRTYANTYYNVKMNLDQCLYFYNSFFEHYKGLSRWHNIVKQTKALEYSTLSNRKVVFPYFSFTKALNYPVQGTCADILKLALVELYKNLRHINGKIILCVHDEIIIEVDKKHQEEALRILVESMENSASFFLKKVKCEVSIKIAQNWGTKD
Method: as §1
The HT assay employs a molecular beacon, a stem-loop DNA template with a Cy3 dye and the Black Hole Quencher on the 3′ and 5′ ends of the DNA, respectively. Pf-apPOL concentration is based on a calculated absorptivity of ε280 = 56750 M^−1 cm^−1. Reactions were carried out at 25 °C, using Corning 3575 […] (well-volume, 20 µL). Assays testing for compound inhibition composed of reaction buffer (pH 7.9 in 50 mM potassium acetate, 20 mM Tris-acetate and 10 mM magnesium acetate), Pf-apPOL (20 nM), DNA substrate (20 nM), dNTPs (6 µM), and compound (10 µM in DMSO). The DNA and nucleotide substrates (dNTPs) were at concentrations of 20 nM and 6 µM, respectively, in the assay. Pf-apPOL was incubated in the reaction buffer with dNTPs and the compound of interest (10 µM, in the assay) at 25 °C for 10 min. The DNA substrate was then added and the reaction was allowed to proceed for 90 min at 25 °C.
In the above, Min is the average of fluorescence emission of the negative controls (substrate only), Max the average fluorescence emission from the positive controls (enzyme + substrate), and Test the emission from the assays in the presence of compounds (enzyme + compound + substrates). Dose-response confirmation assays were performed under similar conditions as the primary screen, but monitoring fluorescence at 10, 90, and 180 min. Tested concentrations of compounds were 2.5, 10, 20, 40, and 80 µM. The IC50 of each compound was determined using Equation (2): (2) […] Vmax/(1+ (I/IC50)^n)
We tested the ability of the 102 compounds to kill P. falciparum parasites cultured in human red blood cells. Due to the number of compounds, we used a single inhibitor concentration of 20 µM and performed experiments in triplicate. These single-dose assays identified 9 compounds that inhibited parasite growth by more than 50%. These compounds were then tested in a dose-response format against chloroquine resistant P. falciparum parasites (Dd2) and the resulting data were fit to a sigmoidal growth inhibition curve to determine EC50 values (Figure 5, Table 2). […] Inhibition of Pb-apPOL is a desired feature because it is likely that future in vivo studies will be performed in the mouse model for Malaria. […] The in vitro polymerase assays identified 5 compounds that were potent inhibitors of all three apicoplast polymerases and a single compound that inhibited Pf-apPOL and Bb-apPOL but not Pb-apPOL (Table 2). Finally, to determine if the compounds were killing the parasites solely via apicoplast disruption, the dose-response curves were also performed with 1 mM isopentylpyrophosphate (IPP) in the growth media (Table 2). […] At this time, it is unclear what the non-apicoplast target(s) may be. One intriguing possibility is that these compounds may be targeting both the apicoplast and the mitochondrial DNA polymerases. […]

[5] = read-out: IC50 Pf-apPOL, Table 2
[6] = supplemental file 2, sheet IC50 nontoxic compounds, Pf-apPOL
[7] = Dd2 parasites in human RBCs, dose-response, no IPP, read-out: EC50
[8] = Dd2 parasites, 1 mM isopentylpyrophosphate (IPP) in the growth media, read-out: EC50 + IPP

P. falciparum apicoplast DNA polymerase (Pf-apPOL), sequence (Q8ILY1 entry or part of it): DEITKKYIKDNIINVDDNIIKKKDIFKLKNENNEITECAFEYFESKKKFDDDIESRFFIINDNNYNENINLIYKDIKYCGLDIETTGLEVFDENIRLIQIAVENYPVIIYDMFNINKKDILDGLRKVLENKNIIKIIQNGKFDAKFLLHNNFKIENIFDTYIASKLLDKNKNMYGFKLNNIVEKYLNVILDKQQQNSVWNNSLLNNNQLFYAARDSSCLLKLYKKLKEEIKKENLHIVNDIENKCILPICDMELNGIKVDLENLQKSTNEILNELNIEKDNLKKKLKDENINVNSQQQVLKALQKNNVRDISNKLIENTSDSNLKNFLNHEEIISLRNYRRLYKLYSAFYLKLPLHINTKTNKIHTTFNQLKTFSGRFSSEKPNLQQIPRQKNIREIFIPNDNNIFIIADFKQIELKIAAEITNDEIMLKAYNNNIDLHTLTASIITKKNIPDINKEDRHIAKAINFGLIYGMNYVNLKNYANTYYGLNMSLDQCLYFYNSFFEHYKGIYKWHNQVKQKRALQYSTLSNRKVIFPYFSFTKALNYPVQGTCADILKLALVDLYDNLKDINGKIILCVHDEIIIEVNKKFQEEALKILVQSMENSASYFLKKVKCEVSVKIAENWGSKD

Row | Compound | IC50 [1, 5] [µM] | IC50 [1, 6] [µM] | IC50 [2] [µM] | EC50 [3, 7] [µM] | EC50 [3, 8] [µM] | IC50 [4] [µM]
1 | O=[N+]([O-])/C=C/c1ccc(-c2ccc(Br)cc2)o1 [Molecule 31] | 15 ± 1 | 15.8 | 15 ± 5 | 8.9 ± 0.5 | 8.7 ± 0.6 | 
2 | O=[N+]([O-])c1ccc(/C=C/c2ccc3ccccc3n2)o1 [Molecule 21] | 8 ± 1 | 8.41 |  |  |  | 9.7 ± 1.6
3 | O=C1Nc2ccc(I)cc2C1=Cc1cc(Br)c(O)c(Br)c1 [Molecule 27] | 15 ± 1 | 15.6 |  | 10 ± 1 | 9 ± 1 | 
4 | Cn1nc(-c2nnc(-c3ccccc3F)o2)c2c1CCN(C(=O)c1ccccc1Cl)C2 [Molecule 34] | 7.2 ± 0.9 | 7.21 |  | 11.3 ± 0.9 | 10 ± 0.7 | 
5 | CC(C)(C)c1cc(C(=O)C(C#N)=NNc2cccc(Cl)c2)no1 [Molecule 98] | 8 ± 2 | 8.45 |  | 16 ± 1 | 11 ± 1 | 
